# Reference: patent US9511072B2, “Methods of modulating cell proliferation and cyst formation in polycystic kidney and liver diseases” (The Medical College of Wisconsin, Inc., priority 2006, dated 2016)
# “Also recorded” adds a separate entry of the source.
# Tests used:
# [1] = system: EGFR phosphorylation in BPK renal tissues; assay: Western blot of EGFR phosphorylation in BPK renal tissue after chronic treatment; format: in vivo, mouse; conditions: BPK mice, ip 10 mg/Kg/day, PN-7 to PN-20, medulla region
# Text: The BPK model, a murine model of ARPKD, arose as a spontaneous mutation in an inbred colony of Balb/c mice and has been extensively characterized (Nauta J et al. Pediatr Nephrol 1993, 7:163-72; Nauta J et al. Pediatr Res 1995, 37:755-63; and Sweeney W E et al. Kidney Int 2003, 64:1310-9). Affected animals die at postnatal day (PN) 24 (average) with a range of PN-21 to PN-29 days. Extrarenal manifestations include biliary proliferation and ductal ectasia (BDE). Balb/c controls were utilized in all experiments. All animal experiments were conducted in accordance with policies of the NIH Guide for the Care and Use of Laboratory Animals and the Institutional Animal Care and Use Committee (IACUC) of the Medical College of Wisconsin. Western blot analysis of EGFR phosphorylation was conducted for BPK renal tissues following 13 days (PN-7 to PN-20) of treatment with vehicle (ip) (lane A of FIG. 10) or HET0016 (ip, 10 mg/Kg/day) (lane B or FIG. 10). […] The reduced phosphorylation of the EGFR directly correlates with the reduced size of the HET0016-treated cystic kidney, reduced KW/BW ratio, and improved morphology of the HET0016-treated cystic kidney observed in the immunohistochemistry study described above in Example 3.
# PCK rats = assay: Chronic HET0016 treatment of PCK rats (KW/BW, LW/BW, morphology); format: in vivo, rat
# Procedure: PCK rats, an orthologous model of human ARPKD (PKHD1), received daily IP injections of vehicle or HET0016 at 10 mg/kg/daily, starting at postnatal day 7 (PN-7). Animals were treated daily from PN-7 to PN-55 (48 doses). Kidney and liver were harvested at PN-55.
# 20-HETE = conditions: cited from earlier work
# [2] = 10 mg/kg/daily IP, PN-7 to PN-55
# [3] = 10 mg/kg/day IP, PN-7 to PN-55, 10 mg/kg/day
substance,measurement,setting,value
N-hydroxy-N-(4-butyl-2-methylphenyl)-formamidine [HET0016],phosphorylation (activation) of EGFR in renal tissue,[1],reduced the phosphorylation (activation) of EGFR
same,BW,PCK rats; [2],93
same,KW (% BW),PCK rats; [2],0.97 % BW
same,LW (% BW),PCK rats; [2],4.3 % BW
same,decrease in KW/BW ratio,"PCK rats; 10 mg/kg/daily IP, vs vehicle",23%
same,decrease in LW/BW ratio,"PCK rats; 10 mg/kg/daily IP, vs vehicle",25%
same,decrease in total body weight,"PCK rats; 10 mg/kg/daily IP, vs vehicle",14%
same,kidney morphology: cysts and tubular epithelial proliferation,PCK rats; [3],dramatic reduction in size and number of cysts and tubular epithelial proliferation; also recorded: dramatic reduction in cyst size and tubular epithelial proliferation
same,liver morphology: biliary cysts and biliary epithelial proliferation,PCK rats; [3],dramatic reduction in size and number of cysts and reduced biliary epithelial proliferation; also recorded: dramatic reduction in the size and number of biliary cysts and in the proliferation of biliary epithelial cells
same,20-HETE levels in vivo,20-HETE,reduce 20-HETE levels in vivo
